Results: patent US20250367323A1, “PLATFORM FOR RADIOLYTIC NEUROMODULATION” (THE UAB RESEARCH FOUNDATION, priority 2024, published 2025)
Where two headings read alike, the source gives them in different places.

What was measured:
dTRPA1(A)10b = target: T1, dTRPA1(A)10b (Drosophila melanogaster, UniProt Q7Z020); type: cell-based; settings: for change in intracellular Ca2+ on agonist administration: HEK293 cells expressing dTRPA1(A)10b, H2O2 10 μM, BITC 100 μM added at end of experiment
T1 construct: expressed in transfected cells; host or cells: HEK293
T1 sequence (Q7Z020 with tags, fused parts or gaps isoform Q7Z020-5): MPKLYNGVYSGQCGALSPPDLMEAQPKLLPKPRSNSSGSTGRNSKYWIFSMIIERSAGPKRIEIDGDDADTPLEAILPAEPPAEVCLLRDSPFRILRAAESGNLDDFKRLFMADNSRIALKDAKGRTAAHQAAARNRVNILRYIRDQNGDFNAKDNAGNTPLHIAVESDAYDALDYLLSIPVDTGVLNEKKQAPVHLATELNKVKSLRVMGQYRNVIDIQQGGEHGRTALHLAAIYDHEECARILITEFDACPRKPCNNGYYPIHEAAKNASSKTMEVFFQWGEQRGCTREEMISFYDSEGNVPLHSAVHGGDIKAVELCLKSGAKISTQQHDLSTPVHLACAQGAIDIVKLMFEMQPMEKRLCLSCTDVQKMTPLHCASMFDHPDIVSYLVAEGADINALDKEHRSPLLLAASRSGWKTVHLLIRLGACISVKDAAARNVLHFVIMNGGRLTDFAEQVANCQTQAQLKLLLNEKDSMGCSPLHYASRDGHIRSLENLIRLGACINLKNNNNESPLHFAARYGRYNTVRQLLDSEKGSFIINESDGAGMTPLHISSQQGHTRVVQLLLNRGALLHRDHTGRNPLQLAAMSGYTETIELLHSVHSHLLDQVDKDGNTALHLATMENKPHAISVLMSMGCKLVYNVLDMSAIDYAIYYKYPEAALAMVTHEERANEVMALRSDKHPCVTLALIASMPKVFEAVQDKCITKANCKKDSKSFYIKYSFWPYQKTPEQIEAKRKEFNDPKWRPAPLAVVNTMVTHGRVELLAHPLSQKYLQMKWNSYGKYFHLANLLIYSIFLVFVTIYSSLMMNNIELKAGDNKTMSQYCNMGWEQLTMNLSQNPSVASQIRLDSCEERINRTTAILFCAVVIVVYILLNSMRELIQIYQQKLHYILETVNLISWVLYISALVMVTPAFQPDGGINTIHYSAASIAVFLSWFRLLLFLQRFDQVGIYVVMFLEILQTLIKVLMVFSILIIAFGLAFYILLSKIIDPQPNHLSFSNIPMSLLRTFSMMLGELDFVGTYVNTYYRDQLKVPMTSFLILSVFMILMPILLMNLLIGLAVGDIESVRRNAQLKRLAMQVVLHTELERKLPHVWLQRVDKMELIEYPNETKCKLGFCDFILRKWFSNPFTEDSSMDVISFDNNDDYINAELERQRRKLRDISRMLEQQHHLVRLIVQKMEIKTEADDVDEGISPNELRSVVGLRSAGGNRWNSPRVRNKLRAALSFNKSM
Description: (§1) (FIG. 1A) Cells expressing either dTRPA1, mTRPA1, or mCherry were Xray irradiated (0.5 nGy/cm^2/sec) for 60 sec while monitoring changes in intracellular Ca^2+. BITC (100 μM) was added at the end of the experiments to confirm TRPA1 expression. […] (FIG. 1B) As in (FIG. 1A), except cells were stimulated with H2O2 (10 μM) administration. […] One-way ANOVA with Tukey's multiple comparisons test.
(§2) The Xrs source (FIG. 3A) was mounted to a Zeiss 710 LSM confocal imaging system. Changes in intracellular Ca^2+ were detected using a Fluo-4 Direct™ calcium assay kit. Fluo-4 epifluorescence changes were computed as (Fi-Fo; ΔF)/Fo, where Fi, is the fluorescence intensity at any frame and F0, is the resting fluorescence. F0 was calculated as the averaged fluorescence of the first 3 frames before stimulation.

[1] = tested on: isolated Drosophila brains
mouse TRPA1 (mTRPA1) = target: T2, mouse TRPA1 (mTRPA1) (Mus musculus, UniProt Q8BLA8); assay: Intracellular Ca2+ imaging (Fluo-4) in HEK293 cells expressing mTRPA1; type: cell-based; settings: H2O2 10 μM, BITC 100 μM added at end of experiment
T2 construct: expressed in transfected cells; host or cells: HEK293
T2 sequence (Q8BLA8 whole entry): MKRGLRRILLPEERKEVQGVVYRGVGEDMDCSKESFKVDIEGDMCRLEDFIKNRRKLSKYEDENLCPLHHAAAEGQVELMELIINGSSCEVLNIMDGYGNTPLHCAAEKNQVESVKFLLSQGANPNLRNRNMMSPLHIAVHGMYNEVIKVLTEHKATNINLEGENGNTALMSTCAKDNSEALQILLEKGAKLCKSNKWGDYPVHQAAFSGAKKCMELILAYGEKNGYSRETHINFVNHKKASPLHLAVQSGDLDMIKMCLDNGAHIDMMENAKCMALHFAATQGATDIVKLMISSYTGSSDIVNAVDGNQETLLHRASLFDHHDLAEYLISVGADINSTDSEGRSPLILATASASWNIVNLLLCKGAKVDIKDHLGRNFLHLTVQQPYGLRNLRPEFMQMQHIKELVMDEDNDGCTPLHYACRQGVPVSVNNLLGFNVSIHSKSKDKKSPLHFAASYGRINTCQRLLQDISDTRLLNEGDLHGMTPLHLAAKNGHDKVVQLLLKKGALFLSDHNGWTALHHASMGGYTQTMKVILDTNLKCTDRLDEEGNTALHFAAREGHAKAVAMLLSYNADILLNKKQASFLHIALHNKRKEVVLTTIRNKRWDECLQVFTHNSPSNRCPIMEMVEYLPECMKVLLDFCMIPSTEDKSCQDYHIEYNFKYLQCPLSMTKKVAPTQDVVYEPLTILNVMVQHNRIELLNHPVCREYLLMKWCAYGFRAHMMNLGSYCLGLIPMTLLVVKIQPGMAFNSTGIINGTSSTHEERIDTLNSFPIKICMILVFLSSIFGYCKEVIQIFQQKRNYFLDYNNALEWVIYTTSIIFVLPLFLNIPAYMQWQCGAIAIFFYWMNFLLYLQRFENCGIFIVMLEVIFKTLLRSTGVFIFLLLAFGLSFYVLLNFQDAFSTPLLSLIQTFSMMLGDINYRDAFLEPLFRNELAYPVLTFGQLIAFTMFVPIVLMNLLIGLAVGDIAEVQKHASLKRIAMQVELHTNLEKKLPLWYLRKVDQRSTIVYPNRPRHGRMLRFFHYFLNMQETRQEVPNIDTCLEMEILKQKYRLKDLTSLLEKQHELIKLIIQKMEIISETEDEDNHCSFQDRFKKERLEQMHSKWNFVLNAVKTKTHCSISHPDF
Description: as §1, §2

[2] = tested on: HEK293 cells expressing mCherry; assay: Intracellular Ca2+ imaging (Fluo-4) in HEK293 cells expressing mCherry control; type: cell-based, human; settings: HEK293 cells expressing mCherry only; H2O2 10 μM; BITC 100 μM added at end of experiment
Description: as §1, §2

[3] = tested on: isolated Drosophila brains; settings: brains perfused with 200 μM H2O2; electrode in vs out of brain p<0.0042; n=3
Drosophila = settings: flies fed food containing H2O2 (1%) for 5 hours vs vehicle; 1 hour acclimation; p<0.03; n=29-30

Structure (SMILES) | change in intracellular Ca2+ on agonist administration (dTRPA1(A)10b) | change in intracellular Ca2+ on agonist administration (mouse TRPA1 (mTRPA1)) | change in intracellular Ca2+ on agonist administration [2] | further results
CC1(C)CC(O)CC(C)(C)N1[O] [Tempol] |  |  |  | effect on Xray-induced Ca2+ increases (dTRPA1(A)10b; Xray irradiation, ROS scavenger present): blocked
N[C@@H](Cc1ccc(O)c(I)c1)C(=O)O [3IY, 3-iodotyrosine] |  |  |  | effect on Xrs-stimulated DA release (AUC of amperometric signals) after DA depletion ([1]; 10 mg/mL orally administered to flies for 24 hr vs vehicle, p<0.013, n=13-15): significantly reduces the ability of Xrs to stimulate DA release
S=C=NCc1ccccc1 [BITC, benzyl isothiocyanate] | increases intracellular Ca^2+ | increases intracellular Ca^2+ | modest increase in Ca^2+ | 
NC1=N[C@H](O)[C@H]2[C@H]3O[C@]4(O)O[C@@H]([C@@H](O)[C@@]2(N1)[C@@H]4O)[C@]3(O)CO [TTX, tetrodotoxin] |  |  |  | effect on Xrs-stimulated DA release (AUC of amperometric current) [1]: robustly inhibits this release
CC(C)c1ccc(NC(=O)Cn2cnc3c2c(=O)n(C)c(=O)n3C)cc1 [HC-030031] |  |  |  | effect on Xrs-stimulated DA release (AUC of amperometric current) ([1]; Xrs 0.1 Gy/sec for 250 msec, brains incubated 5 min with 1 μM TTX or 100 μM HC-030031 vs control/vehicle): inhibits Xrs-stimulated DA release
OO [H2O2, hydrogen peroxide] | promotes an acute increase in intracellular Ca^2+ | not observed | not observed | DA release (peak amperometric current) [3]: stimulates DA release; locomotion (total beam crossings over a 4 hr period) (Drosophila): significantly stimulates locomotion
